Like-named read-outs stand apart in the source and are kept apart here.
Tested on: HIV-1 (H9IIIB or NL4-3 virus) replication in MT4-GFP cells
Experiment: microbe, parasite or virus in culture
Assay type: cell-based
Conditions: inhibition of reproductive ratio R0, 48-72 h post-infection
[1] = Human immunodeficiency virus 1, NL43, MT4-GFP cells infected with HIV-1, 100% normal human serum, read-out: ViKinG IP (nM) with 100% NHS
[2] = Human immunodeficiency virus 1, NL43, MT4-GFP cells infected with HIV-1, serum free conditions (0% NHS), read-out: ViKinG IP (nM) with 0% NHS
[3] = Human immunodeficiency virus 1, NL43, MT4-GFP cells infected with HIV-1, 10% normal human serum, read-out: ViKinG IP (nM) with 10% NHS
[4] = MT4-GFP cells infected with HIV-1, 100% normal human serum, read-out: ViKinG IP (nM) with 100% NHS
[5] = MT4-GFP cells infected with HIV-1, serum free conditions (0% NHS), read-out: ViKinG IP (nM) with 0% NHS

CCN1C(=O)c2c(O)c(=O)c(C(=O)NCc3ccc(F)cc3F)cn2N(C)C12CCNC2 (single isomer, unassigned) [Compound 171]
IC50 [1]: 88 nM
IC50 [2]: 1.8 nM

CCN1C(=O)c2c(O)c(=O)c(C(=O)NCc3ccc(F)cc3F)cn2N(C)C12CCNCC2 [Compound 173]
IC50 [1]: 52 nM
IC50 [2]: 3.2 nM

CC(c1nnc(-c2cn3c(c(O)c2=O)C(=O)N(C)C2(CCOC2)C3)s1)c1ccc(F)cc1F (stereo not shown) [Compound 102]
IC50 [1]: 85 nM
IC50 [2]: 6.8 nM

CN1C(=O)c2c(O)c(=O)c(-c3nnc(Cc4ccc(F)cc4F)s3)cn2N(C)C12CCNC(=O)CC2 (stereo not shown) [Compound 28]
IC50 [3]: 122 nM
IC50 [1]: 679 nM
IC50 [2]: 53.5 nM

CN1C(=O)c2c(O)c(=O)c(C(=O)NCc3ccccc3F)cn2N(C)C12CCOC2 (single isomer, unassigned) [Compound 111]
IC50 [1]: 158 nM
IC50 [2]: 1.6 nM

CN1C(=O)c2c(O)c(=O)c(-c3nnc(Cc4ccc(F)cc4F)s3)cn2N(C)C12CCN(S(C)(=O)=O)CC2 [Compound 26]
IC50 [3]: 26 nM
IC50 [1]: 161 nM
IC50 [2]: 11.5 nM

CN1C(=O)c2c(O)c(=O)c(C(=O)NCc3ccc(F)cc3F)cn2N(CCO)C12CCOC2 (stereo not shown) [Compound 148]
IC50 [4]: 33 nM
IC50 [5]: 1.2 nM

CCOC(=O)N1CCC2(CC1)N(CC)C(=O)c1c(O)c(=O)c(-c3cnn(Cc4ccc(F)cc4F)c3)c(CO)n1N2C [Compound 92]
IC50 [1]: 3650 nM
IC50 [2]: 159 nM

CN1C(=O)c2c(O)c(=O)c(-c3nnc(Cc4ccc(F)cc4F)s3)cn2N(C)C12CCOCC2 [Compound 22]
IC50 [3]: 47 nM
IC50 [1]: 731 nM

CN1C(=O)c2c(O)c(=O)c(C(=O)NCc3c(F)cc(F)cc3F)cn2N(C)C12CCOC2 (single isomer, unassigned) [Compound 106]
IC50 [4]: 27 nM
IC50 [5]: 0.6 nM

O=C1NC2(CCOCC2)Cn2cc(-c3nnc(Cc4ccc(F)cc4F)s3)c(=O)c(O)c21 [Compound 98]
IC50 [1]: 2030 nM
IC50 [2]: 91.6 nM

CN1C(=O)c2c(O)c(=O)c(C(=O)NCc3ccc(F)cc3F)cn2N(C)C12COCC2(C)C (single isomer, unassigned) [Compound 129]
IC50 [4]: 73 nM
IC50 [5]: 0.6 nM

CC1OCCC12N(C)C(=O)c1c(O)c(=O)c(C(=O)NCc3ccc(F)cc3F)cn1N2C (single isomer, unassigned) [Compound 132]
IC50 [4]: 77 nM

CCOC(=O)N1CCC2(CC1)Cn1cc(-c3nnc(Cc4ccc(F)cc4F)s3)c(=O)c(O)c1C(=O)N2CC [Compound 95]
IC50 [1]: 104 nM
IC50 [2]: 11.6 nM

CCN1C(=O)c2c(O)c(=O)c(C(=O)NCc3ccc(F)cc3F)cn2N(C)C12CCNC2 (single isomer, unassigned) [Compound 172]
IC50 [4]: 61 nM
IC50 [5]: 1.6 nM

CN1C(=O)c2c(O)c(=O)c(C(=O)NCc3ccc(F)cc3F)cn2CC12CCOC2 (single isomer, unassigned) [Compound 57]
IC50 [1]: 36 nM
IC50 [2]: 1.6 nM

CN1C(=O)c2c(O)c(=O)c(C(=O)NCc3c(F)cc(F)cc3F)cn2CC12CCOC2 (single isomer, unassigned) [Compound 64]
IC50 [4]: 26 nM
IC50 [5]: 3.3 nM

CN1C(=O)c2c(O)c(=O)c(C(=O)NCc3ccc(F)cc3F)cn2N(C)C12COCC2(C)C (single isomer, unassigned) [Compound 130]
IC50 [4]: 257 nM
IC50 [5]: 2.3 nM

CN1C(=O)c2c(O)c(=O)c(-c3nnc(Cc4ccc(F)cc4F)s3)cn2N(C)C12CCN(c1ccccn1)CC2 [Compound 30]
IC50 [1]: 280 nM
IC50 [2]: 38.5 nM

CN1C(=O)c2c(O)c(=O)c(-c3nnc(Cc4ccc(F)cc4F)s3)cn2N(C)C12CCN(S(=O)(=O)N(C)C)CC2 [Compound 24]
IC50 [3]: 6 nM
IC50 [1]: 86 nM
IC50 [2]: 11.9 nM

CN1C(=O)c2c(O)c(=O)c(C(=O)NCc3ccc(F)cc3F)cn2N(CCCC(F)(F)F)C12CCOC2 (single isomer, unassigned) [Compound 164]
IC50 [1]: 178 nM

CCN1C(=O)c2c(O)c(=O)c(-c3nnc(Cc4ccc(F)cc4F)s3)cn2N(C)C12CCN(S(=O)(=O)N(C)C)CC2 [Compound 13]
IC50 [3]: 14 nM
IC50 [1]: 106 nM
IC50 [2]: 8.6 nM

CCOC(=O)N1CCC2(CC1)Cn1cc(-c3nnc(Cc4ccc(F)cc4F)s3)c(=O)c(O)c1C(=O)N2 [Compound 96]
IC50 [1]: 2240 nM
IC50 [2]: 69.3 nM

CN1C(=O)c2c(O)c(=O)c(C(=O)NCc3c(F)cc(F)cc3F)cn2N(C)C12CCOC2 (single isomer, unassigned) [Compound 105]
IC50 [1]: 37 nM
IC50 [2]: 0.8 nM

CC1OCCC12N(C)C(=O)c1c(O)c(=O)c(C(=O)NCc3cccc(Cl)c3F)cn1N2C (single isomer, unassigned) [Compound 136]
IC50 [4]: 83 nM

CN1C(=O)c2c(O)c(=O)c(C(=O)NCc3ccc(F)c(Cl)c3)cn2CC12CCOC2 (single isomer, unassigned) [Compound 61]
IC50 [1]: 119 nM
IC50 [2]: 2.4 nM

CCN1C(=O)c2c(O)c(=O)c(-c3nnc(Cc4ccc(F)cc4F)s3)cn2N(C)C12CCNCC2 [Compound 32]
IC50 [1]: 74 nM
IC50 [2]: 8 nM

COCCCN1C(=O)c2c(O)c(=O)c(C(=O)NCc3ccc(F)cc3F)cn2CC12CCOC2 (single isomer, unassigned) [Compound 74]
IC50 [4]: 28 nM
IC50 [5]: 3.3 nM

CCN1C(=O)c2c(O)c(=O)c(C(=O)NCc3ccc(F)cc3F)cn2CC12COC2 [Compound 69]
IC50 [1]: 452 nM
IC50 [2]: 3.5 nM

COCN1C(=O)c2c(O)c(=O)c(C(=O)NCc3ccc(F)cc3F)cn2CC12CCOC2 (single isomer, unassigned) [Compound 76]
IC50 [4]: 151 nM
IC50 [5]: 2.4 nM

CN1C(=O)c2c(O)c(=O)c(C(=O)NCc3ccc(F)c(Cl)c3F)cn2CC12CCOC2 (single isomer, unassigned) [Compound 56]
IC50 [1]: 100 nM
IC50 [2]: 1.2 nM

COCCCN1C(=O)c2c(O)c(=O)c(C(=O)NCc3ccc(F)cc3F)cn2CC12CCOC2 (single isomer, unassigned) [Compound 73]
IC50 [1]: 30 nM
IC50 [2]: 1.8 nM

CN1C(=O)c2c(O)c(=O)c(C(=O)NCc3c(F)cccc3F)cn2N(C)C12CCOC2 (single isomer, unassigned) [Compound 116]
IC50 [4]: 42 nM
IC50 [5]: 0.7 nM

CN1C(=O)c2c(O)c(=O)c(C(=O)NCc3cccc(Cl)c3F)cn2CC12CCOC2 (single isomer, unassigned) [Compound 66]
IC50 [4]: 40 nM
IC50 [5]: 1.5 nM

CCOCCN1C(=O)c2c(O)c(=O)c(C(=O)NCc3ccc(F)cc3F)cn2N(C)C12CCOC2 (single isomer, unassigned) [Compound 125]
IC50 [1]: 257 nM
IC50 [2]: 0.8 nM

CCN1n2cc(C(=O)NCc3ccc(F)cc3F)c(=O)c(O)c2C(=O)N(C)C12CCOC2 (single isomer, unassigned) [Compound 150]
IC50 [4]: 71 nM
IC50 [5]: 0.6 nM

CN1C(=O)c2c(O)c(=O)c(C(=O)NCc3ccc(F)cc3)cn2CC12CCOC2 (single isomer, unassigned) [Compound 60]
IC50 [4]: 42 nM
IC50 [5]: 3.1 nM

CCCCCN1C(=O)c2c(O)c(=O)c(C(=O)NCc3ccc(F)cc3F)cn2CC12CCOCC2 [Compound 45]
IC50 [1]: 236 nM
IC50 [2]: 6.4 nM

CN1C(=O)c2c(O)c(=O)c(-c3nnc(Cc4ccc(F)cc4F)s3)cn2CC12CCNCC2 [Compound 93]
IC50 [3]: 114 nM
IC50 [2]: 73.9 nM

CCOP(=O)(CCN1n2cc(C(=O)NCc3ccc(F)cc3F)c(=O)c(O)c2C(=O)N(C)C12CCOC2)OCC (single isomer, unassigned) [Compound 160]
IC50 [4]: 46 nM

CC1OCCC12N(C)C(=O)c1c(O)c(=O)c(C(=O)NCc3cccc(Cl)c3F)cn1N2C (single isomer, unassigned) [Compound 138]
IC50 [4]: 134 nM
IC50 [5]: 0.6 nM

COCCN1C(=O)c2c(O)c(=O)c(C(=O)NCc3ccc(F)c(F)c3F)cn2CC12CCOC2 (single isomer, unassigned) [Compound 71]
IC50 [1]: 350 nM
IC50 [2]: 3.7 nM

COCCN1n2cc(C(=O)NCc3ccc(F)cc3F)c(=O)c(O)c2C(=O)N(C)C12CCOC2 (single isomer, unassigned) [Compound 155]
IC50 [4]: 37 nM

CCN1C(=O)c2c(O)c(=O)c(C(=O)NCc3ccc(F)cc3F)cn2CC12CCOCC2 [Compound 40]
IC50 [1]: 236 nM
IC50 [2]: 2.8 nM

CN1C(=O)c2c(O)c(=O)c(C(=O)NCc3ccc(F)cc3F)cn2CC12CCNCC2 [Compound 88]
IC50 [1]: 97 nM
IC50 [2]: 10.3 nM

COCCN1C(=O)c2c(O)c(=O)c(C(=O)NCc3ccc(F)c(Cl)c3)cn2CC12CCOC2 (single isomer, unassigned) [Compound 52]
IC50 [1]: 2000 nM
IC50 [2]: 4.8 nM

CN1C(=O)c2c(O)c(=O)c(C(=O)NCc3ccc(F)c(Cl)c3)cn2CC12CCOC2 (single isomer, unassigned) [Compound 62]
IC50 [4]: 72 nM
IC50 [5]: 3.1 nM

COCCCN1C(=O)c2c(O)c(=O)c(C(=O)NCc3ccc(F)cc3F)cn2N(C)C12CCOCC2 [Compound 141]
IC50 [1]: 71 nM
IC50 [2]: 2.3 nM

CN1C(=O)c2c(O)c(=O)c(-c3nnc(Cc4ccc(F)cc4F)s3)cn2N(C)C12CCN(C(N)=O)CC2 [Compound 29]
IC50 [1]: 2080 nM
IC50 [2]: 89.1 nM

CN1C(=O)c2c(O)c(=O)c(C(=O)NCc3ccc(F)cc3F)cn2N(C)C12CCOC2 (stereo not shown) [Compound 104]
IC50 (MT4-GFP cells infected with HIV-1, 10% normal human serum, read-out: ViKinG IP (nM) with 10% NHS): 4 nM
IC50 [4]: 87 nM
IC50 [5]: 0.8 nM
